In US8546608B2, “Proteasome inhibitors and methods of using the same” (Cephalon, Inc., priority 2003, dated 2013):

How the values were obtained:
[1] = biological target: T1, 20S Human Erythrocyte Proteasome (HEP) (Homo sapiens, UniProt P20618+P28074); test: Chymotrypsin-like activity of 20S Human Erythrocyte Proteasome (HEP), IC50 determination; assay type: biochemical; settings: assay of Example C, inhibition of HEP
T1 construct: 20S Human Erythrocyte Proteasome (HEP), purchased from Immatics Biotechnologies Inc; purchased Immatics Biotechnologies Inc., Tübingen, Germany; host or cells: human erythrocytes (natural source)
How it was run: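 20S proteasome at 0.2 μg/mL (about 0.6 nM catalytic sites) in 20 mM Tris with 0.04% SDS, preincubated 15 min at 37° C with inhibitor before Suc-LLVY-AMC (100 μM final). AMC fluorescence read in the linear range; triplicates, IC50 from concentration series.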

[2] = biological target: T2, proteasome in Molt-4 cells (human leukemia) (Homo sapiens, UniProt P20618+P28074); assay type: cell-based; settings: assay of Example E, inhibition of MOLT4; read-out: MOLT4 (EC50)
T2 sequence (P28074 60-263): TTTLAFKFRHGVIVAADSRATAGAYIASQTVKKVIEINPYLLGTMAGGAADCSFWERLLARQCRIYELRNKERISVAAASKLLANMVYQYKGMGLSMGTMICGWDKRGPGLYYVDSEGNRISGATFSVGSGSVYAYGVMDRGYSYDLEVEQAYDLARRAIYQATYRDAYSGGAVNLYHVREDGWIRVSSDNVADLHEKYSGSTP
T2 sequence (P20618 29-241): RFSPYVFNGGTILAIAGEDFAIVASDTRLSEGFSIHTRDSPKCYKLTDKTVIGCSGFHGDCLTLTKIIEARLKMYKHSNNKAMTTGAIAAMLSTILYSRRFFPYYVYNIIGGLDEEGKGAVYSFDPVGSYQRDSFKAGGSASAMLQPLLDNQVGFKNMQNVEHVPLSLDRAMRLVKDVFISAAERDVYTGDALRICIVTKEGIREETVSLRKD
How it was run: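 Intact Molt-4 cells (6×10^6 cells/mL) in HEPES-buffered saline were preincubated with inhibitor 15 min at 37 °C, then given cell-permeable MeOSuc-FLF-AFC at 25 μM final.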

| Compound | IC50 [1] | EC50 [2] |
| --- | --- | --- |
| CC(=O)NCC(=O)N[C@@H](CCCNC(=N)N[N+](=O)[O-])C(=O)N[C@@H](CC(C)C)B1O[C@@H]2C[C@@H]3C[C@@H](C3(C)C)[C@]2(C)O1 [D.1.11, 2-Acetylamino-acetamide,N-[(1S)-1-[[[(1R)-1-[(3aS,4S,6S,7aR)-hexahydro-3a,5,5-trimethyl-4,6-methano-1,3,2-benzodioxaborol-2-yl]-3-methylbutyl]amino]carbonyl]-4-[[imino(nitroamino)methyl]amino]butyl]] | < 0.1 µM | > 10 µM |
| CC(C)C[C@H](NC(=O)[C@H](CCCNC(=N)N[N+](=O)[O-])NC(=O)CCN1C(=O)c2ccccc2C1=O)B1O[C@@H]2C[C@@H]3C[C@@H](C3(C)C)[C@]2(C)O1 [D.1.3, 3-(1,3-Dioxo-1,3-dihydro-isoindol-2-yl)-propanamide,N-[(1S)-1-[[[(1R)-1-[(3aS,4S,6S,7aR)-hexahydro-3a,5,5-trimethyl-4,6-methano-1,3,2-benzodioxaborol-2-yl]-3-methylbutyl]amino]carbonyl]-4-[[imino(nitroamino)methyl]amino]butyl]] | < 0.01 µM | 0.2 to 2 µM |
| CCCCCCCCC(C)(C)C(=O)N[C@H](C(=O)N[C@@H](CC(C)C)B(O)O)[C@@H](C)O [E.3.6, Boronic acid, [(1R)-1-[[(2S,3R)-3-hydroxy-2-[(2,2 dimethyl-decanoyl)amino]-1-oxobutyl]amino]-3-methylbutyl]] | < 0.01 µM | < 0.2 µM |
| COc1ccc(C(=O)N[C@@H](CCCNC(=N)N[N+](=O)[O-])C(=O)N[C@@H](CC(C)C)B2O[C@@H]3C[C@@H]4C[C@@H](C4(C)C)[C@]3(C)O2)cc1F [D.3.94, 3-Fluoro-4-methoxybenzamide,N-[(1S)-1-[[[(1R)-1-[(3aS,4S,6S,7aR)-hexahydro-3a,5,5-trimethyl-4,6-methano-1,3,2-benzodioxaborol-2-yl]-3-methylbutyl]amino]carbonyl]-4-[[imino(nitroamino)methyl]amino]butyl]] | < 0.01 µM | < 0.2 µM |
| CCCCc1ccc(C(=O)N[C@H](C(=O)N[C@@H](CC(C)C)B2O[C@@H]3C[C@@H]4C[C@@H](C4(C)C)[C@]3(C)O2)[C@@H](C)O)cc1 [D.3.179, 4-butylbenzamide, N-[(1S,2R)-1-[[[(1R)-1-[(3aS,4S,6S,7aR)-hexahydro-3a,5,5-trimethyl-4,6-methano-1,3,2-benzodioxaborol-2-yl]-3-methylbutyl]amino]-carbonyl]-2-hydroxypropyl]-] | < 0.01 µM | < 0.2 µM |
| CC(C)C[C@H](NC(=O)[C@H](CCCNC(=N)N[N+](=O)[O-])NC(=O)CC1C=CCC1)B1O[C@@H]2C[C@@H]3C[C@@H](C3(C)C)[C@]2(C)O1 (mixture of isomers) [D.3.59] | < 0.01 µM | 0.2 to 2 µM |
| CC(C)C[C@H](NC(=O)[C@H](CCCNC(=N)N[N+](=O)[O-])NC(=O)CCCC1CCN(C)CC1)B1O[C@@H]2C[C@@H]3C[C@@H](C3(C)C)[C@]2(C)O1 [D.1.10, 4-(1-Methyl-piperidin-4-yl)-butanamide,N-[(1S)-1-[[[(1R)-1-[(3aS,4S,6S,7aR)-hexahydro-3a,5,5-trimethyl-4,6-methano-1,3,2-benzodioxaborol-2-yl]-3-methylbutyl]amino]carbonyl]-4-[[imino(nitroamino)methyl]amino]butyl]] | < 0.1 µM | 0.2 to 2 µM |
| COc1ccc(CCCC(=O)N[C@@H](CCCNC(=N)N[N+](=O)[O-])C(=O)N[C@@H](CC(C)C)B2O[C@@H]3C[C@@H]4C[C@@H](C4(C)C)[C@]3(C)O2)cc1 [D.3.50] | < 0.01 µM | < 0.2 µM |
| CC(C)C[C@H](NC(=O)[C@H](CCCNC(=N)N[N+](=O)[O-])NC(=O)CCCc1ccccc1)B1O[C@@H]2C[C@@H]3C[C@@H](C3(C)C)[C@]2(C)O1 [D.3.12, 4-Phenylbutanamide,N-[(1S)-1-[[[(1R)-1-[(3aS,4S,6S,7aR)-hexahydro-3a,5,5-trimethyl-4,6-methano-1,3,2-benzodioxaborol-2-yl]-3-methylbutyl]amino]carbonyl]-4-[[imino(nitroamino)methyl]amino]butyl]] | < 0.01 µM | < 0.2 µM |
| CCCCCCCCCC(=O)N[C@@H](CNC(=O)Nc1ccccc1)C(=O)N[C@@H](CC(C)C)B(O)O [E.5.21, Boronic acid, [(1R)-1-[[(2S)-3-(3-phenylureido)-2-(decanoylamino)-1-oxopropyl]amino]-3-methylbutyl]] | < 0.01 µM | < 0.2 µM |
| CCCCCCCCCCS(=O)(=O)N[C@@H](CCCNC(=N)N[N+](=O)[O-])C(=O)N[C@@H](CC(C)C)B1O[C@@H]2C[C@@H]3C[C@@H](C3(C)C)[C@]2(C)O1 [D.4.3, Decane-1-sulfonamide, N-[(1S)-1-[[[(1R)-1-[(3aS,4S,6S,7aR)-hexahydro-3a,5,5-trimethyl-4,6-methano-1,3,2-benzodioxaborol-2-yl]-3-methylbutyl]amino]carbonyl]-4-[[imino(nitroamino)methyl]amino]butyl]] | < 0.01 µM | < 0.2 µM |
| CCCCc1ccc(C(=O)N[C@@H](CNC(=O)Nc2ccccc2)C(=O)N[C@@H](CC(C)C)B(O)O)cc1 [E.5.19, Boronic acid, [(1R)-1-[[(2S)-3-(3-phenylureido)-2-(4-butylbenzoylamino)-1-oxopropyl]amino]-3-methylbutyl]] | < 0.01 µM | < 0.2 µM |
| CC(C)C[C@H](NC(=O)[C@@H](NC(=O)c1ccc2ccccc2c1Br)[C@@H](C)O)B(O)O [E.1.25, Boronic acid, [(1R)-1-[[(2S,3R)-3-hydroxy-2-[(1-Bromo-2-naphthoyl)amino]-1-oxobutyl]amino]-3-methylbutyl]] | < 0.01 µM | < 0.2 µM |
| CC(C)C[C@H](NC(=O)[C@H](CCCNC(=N)N[N+](=O)[O-])NC(=O)CCCCC1CCCCC1)B1O[C@@H]2C[C@@H]3C[C@@H](C3(C)C)[C@]2(C)O1 [D.3.73] | < 0.01 µM | < 0.2 µM |
| CCCCc1ccc(C(=O)N[C@@H](CNC(=O)c2cnccn2)C(=O)N[C@@H](CC(C)C)B(O)O)cc1 [E.5, Boronic Acid, [(1R)-1-[[(2S)-3-(2-pyrazincarbonylamino)-2-[(4-butylbenzoylamino)]-1-oxopropyl]amino]-3-methylbutyl]] | < 0.01 µM | < 0.2 µM |

Now from value to compound:

| IC50 [1] | EC50 [2] | Compound |
| --- | --- | --- |
| < 0.01 µM | 0.2 to 2 µM | CC(C)C[C@H](NC(=O)[C@H](CCCNC(=N)N[N+](=O)[O-])NC(=O)CCCCC1CCCCC1)B(O)O [D.7.24, Boronic acid, [(1R)-1-[[(2S)-5-[[imino(nitroamino)methyl]amino]-2-[(5-cyclohexylpentanoyl)amino]-1-oxopentyl]amino]-3-methylbutyl]] |
| < 0.01 µM | > 10 µM | CSCC(=O)N[C@@H](CCCNC(=N)N[N+](=O)[O-])C(=O)N[C@@H](CC(C)C)B(O)O [E.2.68, Boronic acid, [(1R)-1-[[(2S)-5-[[imino(nitroamino)methyl]amino]-2-[(2-methylsulfanylacetyl)amino]-1-oxopentyl]amino]-3-methylbutyl]] |
| < 0.01 µM | 0.2 to 2 µM | CCCCC(C)CCC(=O)N[C@@H](CCCNC(=N)N[N+](=O)[O-])C(=O)N[C@@H](CC(C)C)B(O)O (mixture of isomers) [E.2.39, Boronic acid, [(1R)-1-[[(2S)-5-[[imino(nitroamino)methyl]amino]-2-[((RS)-4-methyloctanoyl)amino]-1-oxopentyl]amino]-3-methylbutyl]] |
| < 0.01 µM | > 10 µM | CC(C)C[C@H](NC(=O)[C@H](CCCNC(=N)N[N+](=O)[O-])NC(=O)C1CCN(C(=O)OC(C)(C)C)CC1)B(O)O (racemic) [D.7.7, Boronic acid, [(1R)-1-[[(2S)-5-[[imino(nitroamino)methyl]amino]-2-[[(4RS)-1-[(1,1-dimethylethoxy)carbonyl]piperidine-4-carbonyl]amino]-1-oxopentyl]amino]-3-methylbutyl]] |
| < 0.01 µM | > 10 µM | CCSCC(=O)N[C@@H](CCCNC(=N)N[N+](=O)[O-])C(=O)N[C@@H](CC(C)C)B(O)O [E.2.66, Boronic acid, [(1R)-1-[[(2S)-5-[[imino(nitroamino)methyl]amino]-2-[(2-ethylsulfanylacetyl)amino]-1-oxopentyl]amino]-3-methylbutyl]] |
| < 0.01 µM | > 10 µM | CC(C)C[C@H](NC(=O)[C@H](CCCNC(=N)N[N+](=O)[O-])NC(=O)CCC(=O)c1ccc(S(C)(=O)=O)cc1)B(O)O [E.2.47, Boronic acid, [(1R)-1-[[(2S)-5-[[imino(nitroamino)methyl]amino]-2-[[4-(4-methanesulfonylphenyl)-4-oxobutanoyl]amino]-1-oxopentyl]amino]-3-methylbutyl]] |
| < 0.01 µM | < 0.2 µM | CC(C)CCCC(=O)N[C@@H](CCCNC(=N)N[N+](=O)[O-])C(=O)N[C@@H](CC(C)C)B1O[C@@H]2C[C@@H]3C[C@@H](C3(C)C)[C@]2(C)O1 [D.3.38] |
| < 0.01 µM | > 10 µM | CC(C)CCCC(=O)N[C@@H](CCCNC(=N)N[N+](=O)[O-])C(=O)N[C@@H](CC(C)C)B(O)O [E.2.26, Boronic acid, [(1R)-1-[[(2S)-5-[[imino(nitroamino)methyl]amino]-2-[(5-methylhexanoyl)amino]-1-oxopentyl]amino]-3-methylbutyl]] |
